Drawing on patent publication US20230227437A1, “IMMUNOMODULATOR” (priority 2020, published 2023), this text covers IC50 for 40 molecules.

Molecules are shown by their SMILES.

The target in experiment [1] is T1, hIL-17A (Homo sapiens, UniProt Q16552).
T1 construct: purchased R&D 317-ILB
T1 sequence (Q16552 20-155 limits assumed): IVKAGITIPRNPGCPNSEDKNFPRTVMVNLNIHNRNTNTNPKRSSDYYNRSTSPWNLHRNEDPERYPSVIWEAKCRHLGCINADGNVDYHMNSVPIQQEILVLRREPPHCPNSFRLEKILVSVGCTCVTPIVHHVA
Description: Inhibition of hIL-17A-induced chemokine GROα/CXCL1 production in HT-29 cell. It is filed as cell-based. As to the method:
Human colorectal adenocarcinoma cell HT-29 was inoculated to a 96-well plate (5×10^4 for per well), and incubated at 37° C. on an incubator overnight. A mixture of 30 ng/mL hIL-17A protein (R&D, #317-ILB) with gradient concentrations of IL-17A small molecule inhibitors or with 0.3 μg/mL positive control IL-17A antibody (R&D, #AF-317-NA) was incubated for 1 h at 37° C., and added into the 96-well plate to incubated with HT-29 at 37° C. for 48 h. A level of GROα in a cell culture supernatant was then detected using an ELISA kit for GROα (Cisbio, #62HCXC1peg).
Inhibitory effect of the compound prepared in Examples on hIL-17A-induced chemokine GROα/CXCL1 production in HT-29 cell was tested according to the methods of Experimental Examples 1 and 2. […] “-” indicated not tested. According to the results, the compounds provided herein have good human IL-17A inhibitory activity and can be effectively used in the treatment of diseases associated with abnormal hIL-17A activity.

For experiment [2], the target named is T2, human IL-17A (hIL-17A) (Homo sapiens, UniProt Q16552).
T2 construct: purchased Sino Biological Inc. 12047-H07B
T2 sequence (Q16552 24-155): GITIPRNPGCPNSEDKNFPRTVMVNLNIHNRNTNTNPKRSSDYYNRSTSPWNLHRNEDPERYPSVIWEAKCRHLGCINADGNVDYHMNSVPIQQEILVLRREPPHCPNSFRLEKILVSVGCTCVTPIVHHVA
As to the kind of experiment: IL-17A enzyme-linked immunosorbent assay (competitive ELISA, receptor-ligand binding). As for the experimental part: The inhibition of receptor-ligand binding by human IL-17A (hIL-17A) inhibitors was detected by competitive ELISA. A 96-well plate was inoculated 0.2 μg/ml IL-17 (Sino Biological Inc. Cat #12047-H07B) for incubation at 37° C. for 30 min, 100 μL for per well. The 96-well plate was washed four times with phosphate buffered saline (PBS) containing Tween-20 (PBST, 0.05% Tween-20), 200 μL for per well each time. 200 μL of 5% skim milk were added into the 96-well plate for incubation on a shaker at 25° C. for 30 min. The 96-well plate was washed four times with PBST (0.05% Tween-20), and added with 89 μL of PBST and 1 μL of a compound to be measured (100×), in which a concentration the compound to be measured (100×) was 0.003 μM-30 μM. The mixture was mixed evenly and incubated at 25° C. for 10 min. The mixture was added with 10 μL of 16 nM IL-17R, followed by incubation at 25° C. for 30 min. After washing the 96-well plate 4 times, 100 μL of anti-Fc tag horseradish peroxidase (HRP) coupled antibody were added for incubation on a shaker at 25° C. for 30 min. After washing the 96-well plate 4 times, 100 μL of 3,3′,5,5′-tetramethylbenzidine (TMB) substrate solution were added to the 96-well plate for incubation away from light at 25° C. After addition of 20% HCl, an absorbance was measure by a microplate reader at 450 nm.
The compounds prepared according to the above method were assayed for human IL-17A inhibitory activity.
(An ELISA detects its analyte on a solid surface through an enzyme-linked reagent.)

Take `Cc1n[nH]c(C)c1-c1ccc(NC(=O)[C@@H](NC(=O)c2ccnn2C)C2c3ccccc3CC23CC3)cc1` (stereo partly shown) [Compound 1]: the IC50 in experiment [1] stood at 404 nM; in experiment [2] it was 18 nM.
The corresponding values for `Cc1n[nH]c(C)c1-c1ccc(NC(=O)[C@@H](NC(=O)c2ccnn2C)C2c3cc(F)ccc3CC23CC3)cc1` (stereo partly shown) [Compound 2] are 196 nM and 41 nM.
For the molecule `Cc1n[nH]c(C)c1-c1ccc(NC(=O)[C@@H](NC(=O)c2ccnn2C)C2c3ccccc3OCC23CC3)cc1` (stereo partly shown) [Compound 3], the 50% inhibitory concentration (IC50) in experiment [1] is 213 nM; in experiment [2], 40 nM.
The corresponding values for `Cc1n[nH]c(C)c1-c1ccc(NC(=O)[C@@H](NC(=O)c2ccnn2C)C2c3cc(F)ccc3OCC23CC3)cc1` (stereo partly shown) [Compound 4] are 50 nM and 50 nM.
`Cn1nccc1C(=O)N[C@H](C(=O)Nc1ccc(N2CCOCC2)nc1)C1c2ccccc2CC12CC2` (stereo partly shown) [Compound 10] gave an IC50 in experiment [2] of 98 nM.
For the molecule `Cc1n[nH]c(C)c1-c1ccc(NC(=O)[C@@H](NC(=O)c2ccnn2C)C2c3c(F)cccc3CC23CC3)cc1` (stereo partly shown) [Compound 13], the IC50 in experiment [1] is 391 nM; in experiment [2] it was 31 nM.
On to `Cc1nonc1C(=O)N[C@H](C(=O)Nc1ccc(-c2c(C)n[nH]c2C)cc1)C1c2c(F)cccc2CC12CC2` (stereo partly shown) [Compound 14], for which the results for the IC50 in experiment [1] and in experiment [2] were 206 nM and 59 nM, respectively.
As to `Cc1nonc1C(=O)N[C@H](C(=O)Nc1ccc(-c2c(C)n[nH]c2C)cc1)C1c2ccc(F)cc2CC12CC2` (stereo partly shown) [Compound 15], the IC50 in experiment [1] was found to be 71 nM; in experiment [2] it was 48 nM.
`Cc1n[nH]c(C)c1-c1ccc(NC(=O)[C@@H](NC(=O)c2ccnn2C)C2c3ccc(F)cc3CC23CC3)cc1` (stereo partly shown) [Compound 16]: the IC50 turned out to be 55 nM in experiment [1] and 43 nM in experiment [2].
As to `Cc1n[nH]c(C)c1-c1ccc(NC(=O)[C@@H](NC(=O)c2ccnn2C)C2c3ccc(F)cc3OCC23CC3)cc1` (stereo partly shown) [Compound 17], the IC50 came to 68 nM in experiment [1] and 36 nM in experiment [2].
In the case of `Cc1nonc1C(=O)N[C@H](C(=O)Nc1ccc(-c2c(C)n[nH]c2C)nc1)C1c2cc(F)ccc2OCC12CC2` (stereo partly shown) [Compound 19], the IC50 was 2050 nM in experiment [1] and 190 nM in experiment [2].
Take `Cc1n[nH]c(C)c1-c1ccc(NC(=O)[C@@H](NC(=O)c2ccnn2C(C)C)C2c3cc(F)ccc3OCC23CC3)cn1` (stereo partly shown) [Compound 20]: the IC50 was 878 nM in experiment [1] and 61 nM in experiment [2].
For `CCn1nccc1C(=O)N[C@H](C(=O)Nc1ccc(-c2c(C)n[nH]c2C)nc1)C1c2cc(F)ccc2OCC12CC2` (stereo partly shown) [Compound 21], in that order: 506 nM and 66 nM.
Regarding `Cc1n[nH]c(C)c1-c1ccc(NC(=O)[C@@H](NC(=O)c2ccnn2C)C2c3cc(F)ccc3OCC23CC3)cn1` (stereo partly shown) [Compound 22], the IC50 in experiment [1] was found to be 1020 nM; in experiment [2], 85 nM.
For the molecule `CCc1nonc1C(=O)N[C@H](C(=O)Nc1ccc(-c2c(C)n[nH]c2C)nc1)C1c2cc(F)ccc2OCC12CC2` (stereo partly shown) [Compound 23], the IC50 in experiment [1] was 1050 nM; in experiment [2], 98 nM.
On to `CCc1nonc1C(=O)N[C@H](C(=O)Nc1ccc(-c2c(C)n[nH]c2C)cc1)C1c2cc(F)ccc2OCC12CC2` (stereo partly shown) [Compound 25], for which the 50% inhibitory concentration (IC50) in experiment [1] turned out to be 194 nM; in experiment [2], 56 nM.
`Cc1nonc1C(=O)N[C@H](C(=O)Nc1ccc(-c2c(C)n[nH]c2C)nc1)C1c2ccc(F)cc2OCC12CC2` (stereo partly shown) [Compound 27]: the IC50 in experiment [1] came to 672 nM; in experiment [2], 119 nM.
For the molecule `Cc1n[nH]c(C)c1-c1ccc(NC(=O)[C@@H](NC(=O)c2nonc2C(C)C)C2c3ccc(F)cc3OCC23CC3)cc1` (stereo partly shown) [Compound 28], the IC50 in experiment [1] was determined as 83 nM; in experiment [2], 110 nM.
The corresponding values for `Cc1nonc1C(=O)N[C@H](C(=O)Nc1cnc(-c2c(C)n[nH]c2C)c(F)c1)C1c2ccc(F)cc2CC12CC2` (stereo partly shown) [Compound 29] are 378 nM and 152 nM.
With `Cc1n[nH]c(C)c1-c1ncc(NC(=O)[C@@H](NC(=O)c2ccnn2C)C2c3ccc(F)cc3CC23CC3)cc1F` (stereo partly shown) [Compound 30], the values for the half-maximal inhibitory concentration (IC50) in experiment [1] and in experiment [2] were 229 nM and 65 nM, respectively.
For `Cc1n[nH]c(C)c1-c1ccc(NC(=O)[C@@H](NC(=O)c2ccnn2C)C2c3ccc(F)cc3CC23CC3)cn1` (stereo partly shown) [Compound 31], in that order: 872 nM and 72 nM.
The corresponding values for `Cc1nonc1C(=O)N[C@H](C(=O)Nc1ccc(-c2c(C)n[nH]c2C)nc1)C1c2ccc(F)cc2CC12CC2` (stereo partly shown) [Compound 32] are 351 nM and 75 nM.
For `Cc1n[nH]c(C)c1-c1ccc(NC(=O)[C@@H](NC(=O)c2nocc2C(C)C)C2c3ccc(F)cc3OCC23CC3)cn1` (stereo partly shown) [Compound 33], in that order: 92 nM and 219 nM.
With `CCc1nocc1C(=O)N[C@H](C(=O)Nc1ccc(-c2c(C)n[nH]c2C)nc1)C1c2ccc(F)cc2OCC12CC2` (stereo partly shown) [Compound 34], the IC50 turned out to be 63 nM in experiment [1] and 120 nM in experiment [2].
In the case of `Cc1n[nH]c(C)c1-c1ccc(NC(=O)[C@@H](NC(=O)c2nocc2C(C)C)C2c3ccc(F)cc3OCC23CC3)cc1` (stereo partly shown) [Compound 35], the concentration for half-maximal inhibition (IC50) in experiment [1] is 85 nM; in experiment [2] it was 311 nM.
As for `Cc1nonc1C(=O)N[C@H](C(=O)Nc1ccc(-c2c(C)n[nH]c2C)cc1)C1c2c(F)cc(F)cc2OCC12CC2` (stereo partly shown) [Compound 52], in experiment [2], the IC50 was 402 nM.
In experiment [2], `CCc1nonc1C(=O)N[C@H](C(=O)Nc1ccc(-c2c(C)n[nH]c2C)cc1)C1c2c(F)cc(F)cc2OCC12CC2` (stereo partly shown) [Compound 53] had an IC50 of 554 nM.
In experiment [2], `Cc1n[nH]c(C)c1-c1ccc(NC(=O)[C@@H](NC(=O)c2ccnn2C(C)C)C2c3c(F)cc(F)cc3OCC23CC3)cc1` (stereo partly shown) [Compound 54] gave an IC50 of 136 nM. Against the preceding molecule, the IC50 is about 4.1-fold lower.
Same read-out and setting: the value for `Cc1n[nH]c(C)c1-c1ccc(NC(=O)[C@@H](NC(=O)c2c(C(C)C)no[n+]2[O-])C2c3c(F)cc(F)cc3OCC23CC3)cc1` (stereo partly shown) [Compound 61] was 339 nM.
On the same count and under the same terms, the value for `Cc1n[nH]c(C)c1-c1ccc(NC(=O)[C@@H](NC(=O)c2nonc2C(C)C)C2c3c(F)cc(F)cc3OCC23CC3)cn1` (stereo partly shown) [Compound 66] was 7130 nM.
With `Cc1n[nH]c(C)c1-c1ccc(NC(=O)[C@@H](NC(=O)c2ccnn2C(C)C)C2c3c(F)ccc(F)c3OCC23CC3)cn1` (stereo partly shown) [Compound 75], the concentration for half-maximal inhibition (IC50) in experiment [2] worked out at 5000 nM.
On the same count and under the same terms, the value for `CCc1nonc1C(=O)N[C@H](C(=O)Nc1ccc(-c2c(C)n[nH]c2C)cc1)C1c2c(F)ccc(F)c2OCC12CC2` (stereo partly shown) [Compound 78] was 985 nM; that for `Cc1n[nH]c(C)c1-c1ccc(NC(=O)[C@@H](NC(=O)c2nonc2C(C)C)C2c3c(F)ccc(F)c3OCC23CC3)cn1` (stereo partly shown) [Compound 79] was 32500 nM.
In experiment [2], `Cc1nonc1C(=O)N[C@H](C(=O)Nc1ccc(-c2c(C)n[nH]c2C)cc1)C1c2c(F)ccc(F)c2OCC12CC2` (stereo partly shown) [Compound 81] returned an IC50 of 2060 nM.
On the same count and under the same terms, in the case of `Cc1n[nH]c(C)c1-c1ccc(NC(=O)[C@@H](NC(=O)c2nonc2C(C)C)C2c3c(F)ccc(F)c3OCC23CC3)cc1` (stereo partly shown) [Compound 82] it was 2030 nM; in that of `Cc1n[nH]c(C)c1-c1ncc(NC(=O)[C@@H](NC(=O)c2ccnn2C(C)C)C2c3c(F)ccc(F)c3OCC23CC3)cc1F` (stereo partly shown) [Compound 83], 2020 nM.
Regarding `Cc1n[nH]c(C)c1-c1ncc(NC(=O)[C@@H](NC(=O)c2nonc2C(C)C)C2c3c(F)ccc(F)c3OCC23CC3)cc1F` (stereo partly shown) [Compound 84], the IC50 in experiment [2] was determined as 9810 nM.
The same measure, in the same setting: the value for `COCCc1nocc1C(=O)N[C@H](C(=O)Nc1cnc(-c2c(C)n[nH]c2C)c(F)c1)C1c2cc(F)c(F)cc2OCC12CC2` (stereo partly shown) [Compound 88] was 100 nM; that for `Cc1n[nH]c(C)c1-c1ccc(NC(=O)[C@@H](NC(=O)c2conc2C2CC2)C2c3cc(F)c(F)cc3OCC23CC3)cc1` (stereo partly shown) [Compound 98] was 222 nM.
Still for that read-out and setting: in the case of `COCCc1nocc1C(=O)N[C@H](C(=O)Nc1ccc(-c2c(C)n[nH]c2C)cc1)C1c2cc(F)c(F)cc2OCC12CC2` (stereo partly shown) [Compound 104] it was 116 nM.

One may read the IC50 as the point on the concentration scale where inhibition reaches its midpoint. The low end stands for greater potency in that assay, the high end for weaker potency in that assay.
